Measured values from patent US10986838B2, “Herbicides” (SYNGENTA PARTICIPATIONS AG, priority 2016, dated 2021).

Tests used:
Type in all cases: in vivo
[1] = test system: Abutilon theophrasti (ABUTH); assay: Pre-emergence herbicidal activity (B1); conditions: Test 1b, 1000 g/ha, evaluated after 13 days, 5=total damage to plant, 0=no damage to plant
Description: (§1) B1 Pre-Emergence Herbicidal Activity Seeds of a variety of test species were sown in standard soil in pots: Triticum aestivium (TRZAW), Avena fatua (AVEFA), Alopecurus myosuroides (ALOMY), Echinochloa crus-galli (ECHCG), Lolium perenne (LOLPE), Zea Mays (ZEAMX), Abutilon theophrasti (ABUTH), Amaranthus retroflexus (AMARE) and Setaria faberi (SETFA). After cultivation for one day (pre-emergence) under controlled conditions in a glasshouse (at 24/16° C., day/night; 14 hours light; 65% humidity), the plants were sprayed with an aqueous spray solution derived from the formulation of the technical active ingredient in acetone/water (50:50) solution containing 0.5% Tween 20 (polyoxyethelyene sorbitan monolaurate, CAS RN 9005-64-5). The test plants were then grown in a glasshouse under controlled conditions (at 24/16° C., day/night; 14 hours light; 65% humidity) and watered twice daily. After 13 days, the test was evaluated (5=total damage to plant; 0=no damage to plant). Tables B1a and B1b Control of Weed Species by Compound of Formula (I) after Pre-Emergence Application

[2] = test system: Amaranthus retroflexus (AMARE); assay: Pre-emergence herbicidal activity (B1); conditions: Test 1b, 1000 g/ha, evaluated after 13 days, 5=total damage to plant, 0=no damage to plant
Description: as §1

[3] = test system: Echinochloa crus-galli (ECHCG); assay: Pre-emergence herbicidal activity (B1); conditions: Test 1b, 1000 g/ha, evaluated after 13 days, 5=total damage to plant, 0=no damage to plant
Description: as §1

Lolium perenne (LOLPE) [4] = assay: Pre-emergence herbicidal activity (B1); conditions: Test 1b, 1000 g/ha, evaluated after 13 days, 5=total damage to plant, 0=no damage to plant
Description: as §1

Setaria faberi (SETFA) [5] = assay: Pre-emergence herbicidal activity (B1); conditions: Test 1b, 1000 g/ha, evaluated after 13 days, 5=total damage to plant, 0=no damage to plant
Description: as §1

Zea Mays (ZEAMX) [6] = assay: Pre-emergence herbicidal activity (B1); conditions: Test 1b, 1000 g/ha, evaluated after 13 days, 5=total damage to plant, 0=no damage to plant
Description: as §1

[7] = test system: Abutilon theophrasti (ABUTH); assay: Post-emergence herbicidal activity (B2); conditions: Test B2b, 1000 g/ha, evaluated after 13 days, 5=total damage to plant, 0=no damage to plant
Description: (§2) B2 Post-Emergence Herbicidal Activity Seeds of a variety of test species were sown in standard soil in pots: Triticum aestivium (TRZAW), Avena fatua (AVEFA), Alopecurus myosuroides (ALOMY), Echinochloa crus-galli (ECHCG), Lolium perenne (LOLPE), Zea Mays (ZEAMX), Abutilon theophrasti (ABUTH), Amaranthus retroflexus (AMARE) and Setaria faberi (SETFA). After 8 days cultivation (post-emergence) under controlled conditions in a glasshouse (at 24/16° C., day/night; 14 hours light; 65% humidity), the plants were sprayed with an aqueous spray solution derived from the formulation of the technical active ingredient in acetone/water (50:50) solution containing 0.5% Tween 20 (polyoxyethelyene sorbitan monolaurate, CAS RN 9005-64-5). The test plants were then grown in a glasshouse under controlled conditions (at 24/16° C., day/night; 14 hours light; 65% humidity) and watered twice daily. After 13 days, the test was evaluated (5=total damage to plant; 0=no damage to plant). Tables B2a and B2b Control of Weed Species by Compound of Formula (I) after Post-Emergence Application

[8] = test system: Amaranthus retroflexus (AMARE); assay: Post-emergence herbicidal activity (B2); conditions: Test B2b, 1000 g/ha, evaluated after 13 days, 5=total damage to plant, 0=no damage to plant
Description: as §2

[9] = test system: Echinochloa crus-galli (ECHCG); assay: Post-emergence herbicidal activity (B2); conditions: Test B2b, 1000 g/ha, evaluated after 13 days, 5=total damage to plant, 0=no damage to plant
Description: as §2

Lolium perenne (LOLPE) [10] = assay: Post-emergence herbicidal activity (B2); conditions: Test B2b, 1000 g/ha, evaluated after 13 days, 5=total damage to plant, 0=no damage to plant
Description: as §2

Setaria faberi (SETFA) [11] = assay: Post-emergence herbicidal activity (B2); conditions: Test B2b, 1000 g/ha, evaluated after 13 days, 5=total damage to plant, 0=no damage to plant
Description: as §2

Zea Mays (ZEAMX) [12] = assay: Post-emergence herbicidal activity (B2); conditions: Test B2b, 1000 g/ha, evaluated after 13 days, 5=total damage to plant, 0=no damage to plant
Description: as §2

CC(Nc1ccc(-c2cncc(F)c2)nc1C(F)(F)F)c1ccccc1 (stereo not drawn) [Compound A17]
ABUTH damage score [1]: 0
AMARE damage score [2]: 0
ECHCG damage score [3]: 0
LOLPE damage score (Lolium perenne (LOLPE) [4]): 0
SETFA damage score (Setaria faberi (SETFA) [5]): 2
ZEAMX damage score (Zea Mays (ZEAMX) [6]): 0
ABUTH damage score [7]: 0
AMARE damage score [8]: 0
ECHCG damage score [9]: 4
LOLPE damage score (Lolium perenne (LOLPE) [10]): 1
SETFA damage score (Setaria faberi (SETFA) [11]): 4
ZEAMX damage score (Zea Mays (ZEAMX) [12]): 4

CC(Nc1ccc(-c2cncc(F)c2)nc1C(F)(F)F)c1cccc(C(F)(F)F)c1 (stereo not drawn) [Compound A16]
ABUTH damage score [1]: 0
AMARE damage score [2]: 0
ECHCG damage score [3]: 1
LOLPE damage score (Lolium perenne (LOLPE) [4]): 0
SETFA damage score (Setaria faberi (SETFA) [5]): 4
ZEAMX damage score (Zea Mays (ZEAMX) [6]): 1
ABUTH damage score [7]: 0
AMARE damage score [8]: 0
ECHCG damage score [9]: 3
LOLPE damage score (Lolium perenne (LOLPE) [10]): 1
SETFA damage score (Setaria faberi (SETFA) [11]): 5
ZEAMX damage score (Zea Mays (ZEAMX) [12]): 3

Fc1cncc(-c2ccc(NCc3ccc(Cl)cc3)c(C(F)(F)F)n2)c1 [Compound A24]
ABUTH damage score [1]: 0
AMARE damage score [2]: 0
ECHCG damage score [3]: 2
LOLPE damage score (Lolium perenne (LOLPE) [4]): 1
SETFA damage score (Setaria faberi (SETFA) [5]): 4
ZEAMX damage score (Zea Mays (ZEAMX) [6]): 3
ABUTH damage score [7]: 0
AMARE damage score [8]: 0
ECHCG damage score [9]: 3
LOLPE damage score (Lolium perenne (LOLPE) [10]): 2
SETFA damage score (Setaria faberi (SETFA) [11]): 5
ZEAMX damage score (Zea Mays (ZEAMX) [12]): 5

Nc1ccc(-c2cncnc2)nc1C(F)(F)F [Compound A35, 6-pyrimidin-5-yl-2-(trifluoromethyl)pyridin-3-amine]
ABUTH damage score [1]: 0
AMARE damage score [2]: 1
ECHCG damage score [3]: 3
LOLPE damage score (Lolium perenne (LOLPE) [4]): 2
SETFA damage score (Setaria faberi (SETFA) [5]): 4
ZEAMX damage score (Zea Mays (ZEAMX) [6]): 5
ABUTH damage score [7]: 1
AMARE damage score [8]: 2
ECHCG damage score [9]: 4
LOLPE damage score (Lolium perenne (LOLPE) [10]): 4
SETFA damage score (Setaria faberi (SETFA) [11]): 5
ZEAMX damage score (Zea Mays (ZEAMX) [12]): 5

CNc1ccc(-c2cncc(C)c2)nc1C(F)(F)F [Compound A6]
ABUTH damage score [1]: 1
AMARE damage score [2]: 1
ECHCG damage score [3]: 0
LOLPE damage score (Lolium perenne (LOLPE) [4]): 0
SETFA damage score (Setaria faberi (SETFA) [5]): 1
ZEAMX damage score (Zea Mays (ZEAMX) [6]): 0
ABUTH damage score [7]: 0
AMARE damage score [8]: 0
ECHCG damage score [9]: 1
LOLPE damage score (Lolium perenne (LOLPE) [10]): 1
SETFA damage score (Setaria faberi (SETFA) [11]): 3
ZEAMX damage score (Zea Mays (ZEAMX) [12]): 1

Cc1ccc(CNc2ccc(-c3cncc(F)c3)nc2C(F)(F)F)cc1 [Compound A20]
ABUTH damage score [1]: 0
AMARE damage score [2]: 0
ECHCG damage score [3]: 2
LOLPE damage score (Lolium perenne (LOLPE) [4]): 0
SETFA damage score (Setaria faberi (SETFA) [5]): 5
ZEAMX damage score (Zea Mays (ZEAMX) [6]): 3
ABUTH damage score [7]: 0
AMARE damage score [8]: 0
ECHCG damage score [9]: 3
LOLPE damage score (Lolium perenne (LOLPE) [10]): 2
SETFA damage score (Setaria faberi (SETFA) [11]): 5
ZEAMX damage score (Zea Mays (ZEAMX) [12]): 5

CCNc1ccc(-c2cncc(F)c2)nc1C(F)(F)F [Compound A27]
ABUTH damage score [1]: 0
AMARE damage score [2]: 0
ECHCG damage score [3]: 5
LOLPE damage score (Lolium perenne (LOLPE) [4]): 2
SETFA damage score (Setaria faberi (SETFA) [5]): 4
ZEAMX damage score (Zea Mays (ZEAMX) [6]): 5
ABUTH damage score [7]: 0
AMARE damage score [8]: 0
ECHCG damage score [9]: 4
LOLPE damage score (Lolium perenne (LOLPE) [10]): 4
SETFA damage score (Setaria faberi (SETFA) [11]): 5
ZEAMX damage score (Zea Mays (ZEAMX) [12]): 5

Fc1cncc(-c2ccc(NCC3CC3)c(C(F)(F)F)n2)c1 [Compound A29]
ABUTH damage score [1]: 1
AMARE damage score [2]: 3
ECHCG damage score [3]: 4
LOLPE damage score (Lolium perenne (LOLPE) [4]): 3
SETFA damage score (Setaria faberi (SETFA) [5]): 5
ZEAMX damage score (Zea Mays (ZEAMX) [6]): 5
ABUTH damage score [7]: 2
AMARE damage score [8]: 2
ECHCG damage score [9]: 5
LOLPE damage score (Lolium perenne (LOLPE) [10]): 4
SETFA damage score (Setaria faberi (SETFA) [11]): 5
ZEAMX damage score (Zea Mays (ZEAMX) [12]): 5
